Measured values from patent publication US20250163057A1, “DCN-1 MODULATING COMPOUNDS AND METHODS OF USE THEREOF” (Cellarity, Inc., priority 2023, published 2025).
Where two headings read alike, the source gives them in different places.

Tests used:
DCN1 protein = DCN1 protein (Homo sapiens (Human), UniProt Q96GG9); assay: Intact Protein MS Analysis with the RapidFire-TOF System (covalent adduct formation); assay type: binding; conditions: MS Emax; 400 nM DCN1, 3 hours at room temperature
In short: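 Tag-cleaved human DCN1 (400 nM) expressed in E. coli, in 25 mM Tris-HCl, 200 mM NaCl, 1 mM DTT, was incubated with 11 compound concentrations for 3 h at room temperature and quenched with 0.2% formic acid. Intact-protein Q-TOF MS with deconvolution detected the compound adduct mass.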

[1] = tested on: fetal hemoglobin gene HBG1; assay: HBG1 Nanostring Assay in CD34+ HSPC erythroid differentiation culture; assay type: cell-based, human; conditions: for EC50: Homo sapiens, 240 h, HBG1 induction, Day10 of erythroid differentiation; for Nanostring Ymax obs (%): relative to a control compound (C1)
In short: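 HBG1 counts came from direct nCounter hybridization (67° C, 22 h) of day-10 lysates, normalized to ERCC positive controls and a housekeeping gene, giving EC50 and Ymax versus a reference compound. Compounds in 0.1% DMSO were present from day −2 while cells underwent EPO/SCF/IL-3 erythroid differentiation, with IL-3 dropped at day 7, at 37° C.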

[2] = tested on: Cullin-3 (CUL3) neddylation; assay: AlphaLISA assay for Cullin-3 (CUL3) neddylation in TF 1 cells; assay type: cell-based; conditions: Homo sapiens, TF-1, 3 h, 3 hours treatment
In short: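 Neddylated CUL3 was quantified by AlphaLISA in lysates of TF 1 cells exposed for 3 h to test compound in IMDM without supplements. Percent inhibition set between vehicle and 1 μM DI-1548 positive control; IC50 derived by Hill-equation fitting of dose-response curves.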

[3] = molecular target: DCN1 (DCUND1) protein PONY domain (Homo sapiens (Human), UniProt Q96GG9); assay: TR-FRET assay, DCN1 binding with FAM-labeled probe
DCN1 (DCUND1) protein PONY domain, sequence (Q96GG9 60-248): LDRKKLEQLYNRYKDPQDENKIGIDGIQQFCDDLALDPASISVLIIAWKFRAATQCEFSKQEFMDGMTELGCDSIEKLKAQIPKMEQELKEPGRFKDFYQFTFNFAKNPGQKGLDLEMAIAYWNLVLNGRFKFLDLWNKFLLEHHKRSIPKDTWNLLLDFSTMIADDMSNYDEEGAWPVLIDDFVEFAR
In short: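 Biotinylated DCN1 PONY domain, labeled with streptavidin-Tb, was competed against a FAM-labeled non-covalent DCN1 inhibitor probe in buffer with TritonX and 200 mM NaCl. Conditions were 5 nM DCN1 with 20 nM FAM-probe, or 0.31 nM DCN1 with 100 nM FAM-plus 800 nM unlabeled probe. The TR-FRET ratio was read at 1, 5 and 24 h (0.1% DMSO).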

[4] = 24 hr after treatment with compound, read-out: TR FRET IC50 24 hr
[5] = read-out: TR FRET IC50 1 hr, 1 hr after treatment with compound
[6] = TR FRET IC50 1 hr (nM), 1 hr after treatment with compound

DCN1 protein, sequence (Q96GG9 whole entry): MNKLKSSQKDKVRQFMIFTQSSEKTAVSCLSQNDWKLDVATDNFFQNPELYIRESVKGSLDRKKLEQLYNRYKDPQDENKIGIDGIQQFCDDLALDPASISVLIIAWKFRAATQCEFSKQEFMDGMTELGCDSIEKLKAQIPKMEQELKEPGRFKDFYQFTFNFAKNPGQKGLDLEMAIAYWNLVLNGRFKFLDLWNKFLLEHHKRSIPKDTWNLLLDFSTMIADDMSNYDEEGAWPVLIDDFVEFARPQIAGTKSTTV

Row | Structure (SMILES) | % Adduct Formation (DCN1 protein) | EC50 [1] | Nanostring Ymax obs (%) [1] | IC50 [2] | IC50 [3, 4] | IC50 [3, 5] | IC50 [3, 6]
1 | C=CC(=O)Nc1nn(-c2ccccc2)c2c1[C@H](c1ccc(F)cc1)[C@H](NC(=O)c1cccc(C(F)(F)F)c1)C(=O)N2CC (racemic) [Compound I-122] | ++ (MS Emax % adduct formation greater than 30.0 and less than or equal to 80.0) | > 1000 nM | ++ (Nanostring Ymax greater than 50.0 and less than or equal to 100.0) | 100 to 1000 nM | ≤ 200 nM | ≤ 200 nM | 
2 | C=C(C)C(=O)Nc1nn(-c2ccccc2)c2c1[C@H](c1ccc(F)cc1)[C@H](NC(=O)c1cccc(C(F)(F)F)c1)C(=O)N2CC (racemic) [Compound I-26] | + (MS Emax % adduct formation greater than or equal to 0.0 and less than or equal to 30.0) | 100 to 1000 nM | ++ (Nanostring Ymax greater than 50.0 and less than or equal to 100.0) | 100 to 1000 nM | ≤ 200 nM | ≤ 200 nM | 
3 | CCN1C(=O)[C@H](NC(=O)c2cccc(C(F)(F)F)c2)[C@H](c2ccc(F)cc2)c2c([C@@H](C)NC#N)nn(-c3ccccc3)c21 [Compound I-13, N-((4R,5R)-3-((R)-1-cyanamidoethyl)-7-ethyl-4-(4-fluorophenyl)-6-oxo-1-phenyl-4,5,6,7-tetrahydro-1H-pyrazolo[3,4-b]pyridin-5-yl)-3-(trifluoromethyl)benzamide] | ++ (MS Emax % adduct formation greater than 30.0 and less than or equal to 80.0) | > 1000 nM | + (Nanostring Ymax greater than or equal to 0.0 and less than or equal to 50.0) | 100 to 1000 nM | 1000 to 3000 nM |  | 1000 to 3000 nM
4 | CCN1C(=O)[C@@H](NC(=O)c2cccc(C(F)(F)F)c2)[C@@H](c2ccc(F)cc2)c2c(C(=O)N3CC(F)(F)C[C@H]3C#N)nn(C3CCOCC3)c21 [Compound I-361] | +++ (MS Emax % adduct formation greater than 80.0 and less than or equal to 100.0) | ≤ 100 nM | +++ (Nanostring Ymax greater than 100.0) | ≤ 100 nM | ≤ 200 nM | ≤ 200 nM | 
5 | C/C=C/C(=O)Nc1nn(-c2ccccc2)c2c1[C@H](c1ccc(F)cc1)[C@H](NC(=O)c1cccc(C(F)(F)F)c1)C(=O)N2CC (racemic) [Compound I-62] | + (MS Emax % adduct formation greater than or equal to 0.0 and less than or equal to 30.0) | > 1000 nM | + (Nanostring Ymax greater than or equal to 0.0 and less than or equal to 50.0) | 100 to 1000 nM | 200 to 1000 nM | ≤ 200 nM | 
6 | C=C(CO)C(=O)NCc1nn(-c2ccccc2)c2c1[C@@H](c1ccc(F)cc1)[C@H](NC(=O)c1cccc(C(F)(F)F)c1)C(=O)N2CC [Compound I-106] | + (MS Emax % adduct formation greater than or equal to 0.0 and less than or equal to 30.0) | > 1000 nM | ++ (Nanostring Ymax greater than 50.0 and less than or equal to 100.0) | 100 to 1000 nM | 200 to 1000 nM |  | 200 to 1000 nM
7 | CCN1C(=O)[C@@H](NC(=O)c2cccc(C(F)(F)F)c2)[C@@H](c2ccc(F)cc2)c2c(NC(=O)C3=CCCC3)nn(-c3ccccc3)c21 (racemic) [Compound I-65] | + (MS Emax % adduct formation greater than or equal to 0.0 and less than or equal to 30.0) | > 1000 nM | ++ (Nanostring Ymax greater than 50.0 and less than or equal to 100.0) | ≤ 100 nM | 200 to 1000 nM | ≤ 200 nM | 
8 | C=CS(=O)(=O)N[C@H](C)c1nn(-c2ccccc2)c2c1[C@H](c1ccc(F)cc1)[C@H](NC(=O)c1cccc(C(F)(F)F)c1)C(=O)N2CC (mixture of isomers) [Compound I-74] | +++ (MS Emax % adduct formation greater than 80.0 and less than or equal to 100.0) | 100 to 1000 nM | ++ (Nanostring Ymax greater than 50.0 and less than or equal to 100.0) | ≤ 100 nM | ≤ 200 nM | ≤ 200 nM | 
9 | CCN1C(=O)[C@@H](NC(=O)c2cccc(C(F)(F)F)c2)[C@@H](c2ccc(F)cc2)c2c(NC(=O)/C=C/C(=O)OC)nn(-c3ccccc3)c21 (racemic) [Compound I-136] | +++ (MS Emax % adduct formation greater than 80.0 and less than or equal to 100.0) | > 1000 nM | + (Nanostring Ymax greater than or equal to 0.0 and less than or equal to 50.0) | ≤ 100 nM |  |  | 200 to 1000 nM
10 | CCN1C(=O)[C@@H](NC(=O)c2cccc(C(F)(F)F)c2)[C@@H](c2ccc(F)cc2)c2c(C(=O)NCC#N)nn(-c3ccccc3)c21 [Compound I-148] | +++ (MS Emax % adduct formation greater than 80.0 and less than or equal to 100.0) |  | + (Nanostring Ymax greater than or equal to 0.0 and less than or equal to 50.0) | 100 to 1000 nM | 200 to 1000 nM |  | 1000 to 3000 nM
11 | C=C(C(=O)NCc1nn(-c2ccccc2)c2c1[C@@H](c1ccc(F)cc1)[C@H](NC(=O)c1cccc(C(F)(F)F)c1)C(=O)N2CC)C(C)N1CCOCC1 (mixture of isomers) [Compound I-88] | + (MS Emax % adduct formation greater than or equal to 0.0 and less than or equal to 30.0) | > 1000 nM | + (Nanostring Ymax greater than or equal to 0.0 and less than or equal to 50.0) | ≤ 100 nM | ≤ 200 nM | ≤ 200 nM | 
12 | CCN1C(=O)[C@@H](NC(=O)c2cccc(C(F)(F)F)c2)[C@@H](c2ccc(F)cc2)c2c(C(=O)N3CCNC[C@@H]3C#N)nn(C3CCOCC3)c21 [Compound I-364] | +++ (MS Emax % adduct formation greater than 80.0 and less than or equal to 100.0) | ≤ 100 nM | ++ (Nanostring Ymax greater than 50.0 and less than or equal to 100.0) | ≤ 100 nM | ≤ 200 nM | ≤ 200 nM | 
13 | CCN1C(=O)[C@@H](NC(=O)c2cccc(C(F)(F)F)c2)[C@@H](c2ccc(F)cc2)c2c(NC(=O)/C=C/C(F)(F)F)nn(-c3ccccc3)c21 [Compound I-125] | ++ (MS Emax % adduct formation greater than 30.0 and less than or equal to 80.0) | 100 to 1000 nM | +++ (Nanostring Ymax greater than 100.0) | ≤ 100 nM | 200 to 1000 nM | > 3000 nM | 
14 | CCN1C(=O)[C@@H](NC(=O)c2cccc(C(F)(F)F)c2)[C@@H](c2ccc(F)cc2)c2c(CNC(=O)C#CCN(C)C)nn(-c3ccccc3)c21 (racemic) [Compound I-19, rac-N-((4R,5R)-3-((4-(dimethylamino)but-2-ynamido)methyl)-7-ethyl-4-(4-fluorophenyl)-6-oxo-1-phenyl-4,5,6,7-tetrahydro-1H-pyrazolo[3,4-b]pyridine-5-yl)-3-(trifluoromethyl)benzamide] | +++ (MS Emax % adduct formation greater than 80.0 and less than or equal to 100.0) | ≤ 100 nM | +++ (Nanostring Ymax greater than 100.0) | ≤ 100 nM | ≤ 200 nM |  | ≤ 200 nM
15 | C=CC(=O)N(C)Cc1nn(-c2ccccc2)c2c1[C@H](c1ccc(F)cc1)[C@H](NC(=O)c1cccc(C(F)(F)F)c1)C(=O)N2CC (racemic) [Compound I-29] | + (MS Emax % adduct formation greater than or equal to 0.0 and less than or equal to 30.0) | > 1000 nM | + (Nanostring Ymax greater than or equal to 0.0 and less than or equal to 50.0) | > 1000 nM | 1000 to 3000 nM |  | 1000 to 3000 nM
